The results in this text go back to US20240398767A1, “INHIBITORS OF THE MTDH-SND1 PROTEIN COMPLEX FOR CANCER THERAPY” (The Trustees of Princeton University, priority 2021, published 2024).

The target of series [1] is T1, MTDH-SND1 interaction in SCP28 tumors (Homo sapiens, UniProt Q7KZF4).
T1 construct: SND1-NLuc and CLuc-MTDH flanked by BamH 1 and Not 1 restriction sites were inserted into pcDNA3.1 and pRVPTO (retrovrial) vectors; expressed in transfected cells; host or cells: SCP28 cells stably transduced with pRVPTO retroviral vectors (packaged in H29 cells); in culture (A5) or as orthotopic tumours in NSG mice (A11)
T1 sequence (Q7KZF4 with tags, fused parts or gaps): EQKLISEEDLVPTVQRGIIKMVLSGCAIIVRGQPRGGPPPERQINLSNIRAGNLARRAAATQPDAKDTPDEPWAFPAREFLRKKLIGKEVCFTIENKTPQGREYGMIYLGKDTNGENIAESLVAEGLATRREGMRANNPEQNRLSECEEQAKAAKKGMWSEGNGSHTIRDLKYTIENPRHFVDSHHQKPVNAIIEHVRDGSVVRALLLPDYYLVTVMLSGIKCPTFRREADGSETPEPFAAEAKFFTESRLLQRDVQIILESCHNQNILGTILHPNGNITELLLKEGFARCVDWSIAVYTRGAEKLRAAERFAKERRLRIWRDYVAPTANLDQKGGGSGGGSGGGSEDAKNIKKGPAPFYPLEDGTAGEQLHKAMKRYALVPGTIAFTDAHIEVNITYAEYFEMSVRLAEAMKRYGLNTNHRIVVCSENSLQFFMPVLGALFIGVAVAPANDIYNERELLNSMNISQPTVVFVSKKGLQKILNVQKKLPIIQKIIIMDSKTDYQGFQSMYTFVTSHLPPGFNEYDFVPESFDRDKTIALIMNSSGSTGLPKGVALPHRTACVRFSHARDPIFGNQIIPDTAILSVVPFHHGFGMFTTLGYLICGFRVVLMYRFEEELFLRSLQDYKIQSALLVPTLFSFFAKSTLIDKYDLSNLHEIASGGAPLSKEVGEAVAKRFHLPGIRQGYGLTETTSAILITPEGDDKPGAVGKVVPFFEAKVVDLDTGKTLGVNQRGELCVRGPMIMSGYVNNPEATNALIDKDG
The series is described as follows: In vivo split-luciferase bioluminescence in SCP28 tumors. Also on record: species or system NSG female mice. As to conditions: 0.25 mg or 0.5 mg via tail-vein injection, 30 min after treatment. As for the experimental part:
FIG. 12A, NSG female mice were inoculated with 10 k of SCP28 cells that express split-luciferase components by MFP injection. Two weeks after injection, the mice were treated with 0.25 mg/mouse or 0.5 mg/mouse of C26-A6 via tail-vein injection. 30 min after the treatment, luciferase activity at primary tumors was measured.
FIG. 12B, Luciferase activity at primary tumors from mice in FIG. 12A. Data represent mean±SEM. n=3 mice. Significance determined by one-way ANOVA analysis with Dunnett's test for multiple comparisons.
To test the in vivo blocking effect of C26-A6 on MTDH-SND1 interaction, mice with SCP28 tumors that stably express split-luciferase components were treated with vehicle, 0.25 mg or 0.5 mg of C26-A6 via tail-vein injection followed by bioluminescence imaging.

Series [2] has as its system SCP28 tumors with MTDH or SND1 KD. The series is described as follows: SCP28 tumor models with MTDH or SND1 KD. Format: in vivo, NSG females. As for the experimental part: FIG. 17A, Indicated cells were injected into NSG females orthotopically and followed by vehicle or C26-A6 treatment after 2 weeks. Tumor volumes were measured 8 weeks after injection. Vehicle, n=6 mice; C26-A6, n=6 mice.
FIG. 17B, Spontaneous lung metastasis of the mice in FIG. 17A were assessed by BLI (right). Size bar, 5 mm. Vehicle, n=5 lungs; C26-A6, n=6 lungs.
FIG. 17C, The SND1 and MTDH expression of the cells used in FIG. 17A was evaluated.
Next, to further validate that the anti-tumor effect of C26-A6 depends on its on-target effects by disrupting MTDH-SND1 complex, PyMT; UBC-Cre^ERT+/−;Mtdh^fl/fl tumor cells with Mtdh depletion or with endogenous Snd1 KD were employed for the similar assay as in FIG. 5-1a. […] Likewise, MTDH or SND1 KD abolished the C26-A6 treatment-induced primary tumor inhibition or metastasis reduction in SCP28 tumor models (Extended Data FIG. 10-1a-c).

The next series concerns SCP28 cells. The series is described as follows: Experimental lung metastasis of SCP28 cells. The note with it: 5 weeks treatment. It is filed as in vivo. Here is the method: FIG. 17D, Tail-vein injection lung metastasis was determined by BLI right before (Week 0) or after (5 weeks) vehicle or C26-A6 treatment. Vehicle, n=11 lungs; C26-A6, n=12 lungs.
FIG. 17E, Lung metastatic nodules were quantified. The metastatic nodules of the representative lungs were highlighted with red and blue respectively. Size bar, 5 mm. Vehicle, n=11 lungs; C26-A6, n=12 lungs.
To exclude the possibility that the lung metastasis reduction upon C26-A6 treatment was due to the smaller primary tumor, tail vein injection of PyMT tumor cells was performed to form experimental lung metastasis in FVB mice. Three days later, mice were divided randomly into two groups and treated with vehicle or C26-A6 respectively (FIG. 5L).

Series [3] can be described thus: Toxicity in 4TO7 metastasis-bearing mice (ALT/AST, blood cell counts, small intestine). It is filed as in vivo. Here is the method: FIG. 7E, Serum from mice in FIG. 7A were collected for ALT and AST activity measurement following the standard protocol (Sigma). Data represent mean±SEM. AST, n=8 replicates from 6 mice; ALT, n=9 replicates from 6 mice. Significance determined by one-way ANOVA analysis with Sidak's test for multiple comparisons.
FIG. 7F, Blood samples were drawn from the heart of mice in FIG. 7A, and blood cell counts were performed with the Sysemx XN-3000 Hematology System (Sysmex America, Inc.). Data represent mean±SEM. n=6 mice per group. Significance determined by one-way ANOVA analysis with Sidak's test for multiple comparisons.
FIG. 7G, Small intestine samples were obtained from mice in FIG. 7A. H&E and Alcian blue staining was performed on processed, sliced samples. Scale bar: 200 μm.
FIG. 7H, Quantification of Alcian blue staining results from FIG. 7G. Data represent mean±SEM. n=12 fields from 6 mice in each group. Significance determined by one-way ANOVA analysis with Sidak's test for multiple comparisons.

Consider `COc1ccc(Cl)cc1S(=O)(=O)Nc1cccn2nc(C)nc12` [Analog C26-A6], for which the “MTDH-SND1 interaction in vivo (luciferase activity at primary tumors)” value in series [1] is recorded as “blocks MTDH-SND1 interaction in vivo in a dose-dependent manner”. Moreover, the “C26-A6 treatment-induced primary tumor inhibition or metastasis reduction” value in series [2] is given as “abolished”. Also, the experimental lung metastasis entry with SCP28 cells is on record as “dramatically inhibited”. Also, the tolerability entry in series [3] (15 mg/kg 5 days per week) is “well tolerated”. The “enhancement of chemotherapy toxicity” value in series [3] (combined with paclitaxel) is reported as “did not further enhance the chemotherapy toxicity”.
